{"source": "paper PMC5120274", "about": "“Characterization of the Annonaceous acetogenin, annonacinone, a natural product inhibitor of plasminogen activator inhibitor-1” (Scientific Reports, 2016)", "key": {"PAI-1 [1]": {"target": "T1, PAI-1 (Homo sapiens, UniProt P05121)", "T1 construct": "purchased Stago BNL (Asnières sur Seine, FR)", "T1 sequence (P05121 24-402)": "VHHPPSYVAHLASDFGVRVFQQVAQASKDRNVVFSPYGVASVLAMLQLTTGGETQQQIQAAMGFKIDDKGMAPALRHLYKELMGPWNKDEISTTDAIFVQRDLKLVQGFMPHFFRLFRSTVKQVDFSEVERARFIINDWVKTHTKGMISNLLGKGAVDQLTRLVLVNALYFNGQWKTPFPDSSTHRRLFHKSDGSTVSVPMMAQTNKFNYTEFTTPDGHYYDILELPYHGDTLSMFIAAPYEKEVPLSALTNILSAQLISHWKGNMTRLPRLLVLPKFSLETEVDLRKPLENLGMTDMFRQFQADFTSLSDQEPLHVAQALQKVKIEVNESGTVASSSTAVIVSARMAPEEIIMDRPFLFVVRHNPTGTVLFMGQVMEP", "assay": "chromogenic screening assay: rate of tPA inhibition by PAI-1 (spectrozyme tPA hydrolysis)", "format": "biochemical", "details": "mean ± SEM", "method": "(§1) Compounds from our local collection BioCIS and from the Prestwick compound library (Prestwick chemicals, Illkirch, FR), a collection containing only FDA approved drugs (around 4000 compounds in total) were tested in a chromogenic assay measuring the inhibition rate of tPA-catalyzed spectrozyme® tPA hydrolysis in the presence of PAI-1. Compounds (20 μL, final concentration 50 μM, 1% DMSO) were dispensed in a 96 well half area Greiner plate. A mixture containing 20 μL of PAI-1 (final concentration 20 nM) and 80 μL of Spectrozyme-tPA (final concentration 400 μM) was then added, and the mixture pre-incubated for 45 minutes at 37 °C. At the end of pre-incubation time, 90 μL of the mixture were added to another 96 well half area plate containing 10 μL tPA (final concentration 10 nM). The kinetic was then measured at 405 nm for 45 min at 37 °C in an Envision microplate reader. Progress curves were fitted using the pseudo first order equation to determine the apparent rate constant k."}, "human α1-antitrypsin": {"test_system": "T2, human α1-antitrypsin", "T2 construct": "purchased Sigma", "assay": "continuous chromogenic assay: inhibition of neutrophil elastase by α1-antitrypsin", "format": "biochemical", "details": "α1-antitrypsin pre-incubated with 50 μM annonacinone 20 min 37 °C; untreated 1.2 × 10^−3", "method": "5 μM human α1-antitrypsin (Sigma) or human antithrombin (Aclotin®, LFB) were incubated with 50 μM annonacinone (or 0.5% DMSO in reaction buffer as control) for 20 min at 37 °C. The mixtures containing α1-antitrypsin were diluted in N-Methoxysuccinyl-Ala-Ala-Pro-Val p-nitroanilide (Sigma) containing solution and substrate hydrolysis kinetic was triggered by addition of neutrophil elastase (Sigma) to a final volume of 100 μL containing 13 nM α1-antitrypsin, 130 nM annonacinone, 82 μM chromogenic substrate and 5 nM neutrophil elastase. The mixtures containing antithrombin were diluted in fondaparinux (Arixtra®, GlaxoSmithKline) and CS-11(22)-FXa (Hyphen Biomed) containing solution and substrate hydrolysis kinetic was triggered by addition of factor Xa (Stago BNL) to a final volume of 100 μL containing 51 nM antithrombin, 510 nM annonacinone, 200 μM chromogenic substrate, 5 μM fondaparinux and 2 nM factor Xa."}, "PAI-1 [2]": {"target": "T1, PAI-1", "assay": "thromboelastography (TEG) on pooled human plasma with tPA and PAI-1", "format": "biochemical", "method": "20 μL of CaCl2 (0.2 M), 10 μL of PAI-1 (final concentration 22 nM) and 10 μL of tested compounds were added in a TEG cup and pre-incubated for 20 min at room temperature. On the other hand, 1 mL of pooled citrated normal human plasma (pool of at least 10 healthy donors) was added to a vial containing 20 μL of Kaolin. 680 μl of the plasma/Kaolin mixture were then added to 20 μL of tPA (final concentration 9 nM). At the end of pre-incubation time, 320 μL of the plasma/tPA/kaolin mixture were transferred into the TEG cup and the thromboelastogram measured."}, "PAI-1/tPA complex": {"test_system": "T3, PAI-1/tPA complex", "T3 construct": "purchased Stago BNL (Asnières sur Seine, FR)", "assay": "PAI-1/tPA complex formation on SDS-PAGE", "format": "biochemical, human", "details": "PAI-1 pre-incubated with annonacinone 30 min 37 °C", "method": "PAI-1 (4 μL, 1 μM) was pre-incubated with 16 μL annonacinone (2% DMSO) for 30 min at 37 °C. Human tPA (4 μL, 0.5 μM) was then added to the mixture and incubated for 15 min at 37 °C. Reaction was stopped by addition of 4X SDS-PAGE loading buffer followed by immediate boiling. Samples were then analyzed on SDS-PAGE followed by silver staining."}, "PAI-1 [3]": {"test_system": "T4, PAI-1", "T4 construct": "purchased Stago BNL (Asnières sur Seine, FR)", "assay": "native PAGE analysis of PAI-1 polymerization", "format": "biochemical, human", "details": "increasing concentrations up to 50 μM, 30 min 37 °C", "method": "PAI-1 (1 μM) was mixed with various concentration of annonacinone or DMSO 1% for 30 min at 37 °C. Samples were mixed with 1/3 volume of native gel sample buffer or LDS sample buffer. The former were subjected to BN-PAGE and the latter were fractioned by SDS-PAGE. Proteins band were visualized by silver staining."}, "[4]": {"target": "T5, PAI-1/vitronectin complex (Homo sapiens, UniProt P05121)", "T5 construct": "purchased Stago BNL (Asnières sur Seine, FR)", "T5 sequence (P05121 24-402, one chain of several)": "as the sequence (P05121 24-402) above", "assay": "chromogenic kinetic assay in presence of vitronectin", "format": "biochemical", "method": "Compounds (20 μL) were dispensed in a 96 well half area Greiner plate. A mixture containing 20 μL of PAI-1 (final concentration 20 nM) and 40 μL of a chromogenic substrate (Spectrozyme-tPA, final concentration 400 μM) was then added, and the mixture pre-incubated for 20 minutes at 37 °C. 40 μL of vitronectin (final concentration 37.5 nM) was added and the mixture further pre-incubated for 20 min at 37 °C. At the end of pre-incubation time, 90 μL of the PAI-1/vitronectin/compound mixture were added to 10 μL of tPA (final concentration 10 nM) and the tPA catalysed substrate hydrolysis reaction was followed for 45 min at 405 nm. Progress curves were then fitted using the pseudo first order equation to determine the apparent rate constant k."}, "PAI-1 Y79A": {"test_system": "T6, PAI-1 Y79A", "T6 construct": "made in house", "assay": "chromogenic screening assay with PAI-1 mutant Y79A", "format": "biochemical", "method": "as §1\n(§2) Mutants were constructed as previously described. […] The effect of annonacinone was measured at 50 μM for each mutant in our chromogenic screening assay. […] For each mutant, the ratio between the apparent rate constants with and without 50 μM annonacinone were calculated and then compared to that of PAI-1 WT to determine the % of annonacinone activity."}, "PAI-1 T94A": {"test_system": "T7, PAI-1 T94A", "T7 construct": "made in house", "assay": "chromogenic screening assay with PAI-1 mutant T94A", "format": "biochemical", "method": "as §1, §2"}, "PAI-1 D95A": {"test_system": "T8, PAI-1 D95A", "T8 construct": "made in house", "assay": "chromogenic screening assay with PAI-1 mutant D95A", "format": "biochemical", "details": "ratio of kapp relative to WT (100%)", "method": "as §1, §2"}, "PAI-1 R118A": {"test_system": "T9, PAI-1 R118A", "T9 construct": "made in house", "assay": "chromogenic screening assay with PAI-1 mutant R118A", "format": "biochemical", "method": "as §1, §2"}, "PAI-1 K122A": {"test_system": "T10, PAI-1 K122A", "T10 construct": "made in house", "assay": "chromogenic screening assay with PAI-1 mutant K122A", "format": "biochemical", "details": "for Annonacinone activity 50 μM (% WT): ratio of kapp relative to WT (100%)", "method": "as §1\nMutants were constructed as previously described. Based on computer modelling, the following mutants were prepared, T79A, T94A, D95A, R118A and K122A. The effect of annonacinone was measured at 50 μM for each mutant in our chromogenic screening assay. Progress curves were fitted using the pseudo first order equation to determine the apparent rate constant k. For each mutant, the ratio between the apparent rate constants with and without 50 μM annonacinone were calculated and then compared to that of PAI-1 WT to determine the % of annonacinone activity."}, "[5]": {"details": "compound 50 μM, tPA 9 nM + PAI-1 22 nM"}, "[6]": {"details": "ratio of kapp relative to WT (100%)"}}, "note": "Values joined by “and” are separate entries in the source; they are usually repeats but may differ in a detail not shown here. Equal values may be shown once.", "data": [{"smiles": "CCCCCCCCCCCC[C@@H](O)[C@H]1CC[C@H]([C@H](O)CCCCC(=O)CCCCC[C@@H](O)CC2=C[C@H](C)OC2=O)O1", "note": "[Annonacinone]", "values": [{"measurement": "kapp Annonacinone 50 μM", "setting": "PAI-1 [1]; PAI-1 WT (Table 2 series), DMSO 1% 6,5 ± 0,6 × 10^−3, n = 4", "result": "9,6 ± 1,0 × 10^−4 s^−1"}, {"measurement": "IC50", "setting": "PAI-1 [1]; chromogenic screening assay, without vitronectin, n = 3, read-out: IC50", "result": "9 ± 1", "unit": "µM"}, {"measurement": "kapp 50 μM (apparent rate constant of tPA inhibition by PAI-1)", "setting": "PAI-1 [1]; compound 50 μM, 1% DMSO, PAI-1 20 nM, tPA 10 nM, DMSO 1% control 4.4 ± 0.3 × 10^-3, n = 3", "result": "6.4 ± 0.7 × 10^-4 s^-1"}, {"measurement": "kapp of neutrophil elastase inhibition by α1-antitrypsin", "setting": "human α1-antitrypsin", "result": 0.0011, "unit": "s⁻¹"}, {"measurement": "IC50", "setting": "PAI-1 [2]; LY60 of three independent experiments plotted against concentration, read-out: IC50 from LY60 values", "result": "2.3 ± 1", "unit": "µM"}, {"measurement": "effect on maximal amplitude (MA) and parameters of clot formation (R, K, angle)", "setting": "PAI-1 [2]; TEG, human plasma", "result": "no significant effect"}, {"measurement": "Angle", "setting": "PAI-1 [2]; [5]", "result": 73.5, "unit": "°"}, {"measurement": "K (clot formation time)", "setting": "PAI-1 [2]; [5]", "result": 1.6, "unit": "min"}, {"measurement": "MA (maximal amplitude)", "setting": "PAI-1 [2]; [5]", "result": 21.4, "unit": "mm"}, {"measurement": "R (clotting time)", "setting": "PAI-1 [2]; [5]", "result": 6, "unit": "min"}, {"measurement": "LY30 (clot lysis 30 minutes after maximal amplitude)", "setting": "PAI-1 [2]; compound 50 μM, tPA 9 nM + PAI-1 22 nM, tPA alone 94.3%, tPA + PAI-1 0%", "result": 87.1, "unit": "%"}, {"measurement": "LY60 (clot lysis 60 minutes after maximal amplitude)", "setting": "PAI-1 [2]; compound 50 μM, tPA 9 nM + PAI-1 22 nM, tPA alone 96.8%, tPA + PAI-1 0%", "result": "94% and 93.6%"}, {"measurement": "effect on PAI-1/tPA covalent complex formation", "setting": "PAI-1/tPA complex", "result": "concentration-dependent inhibition"}, {"measurement": "effect on PAI-1 polymerization", "setting": "PAI-1 [3]", "result": "did not permit to show formation of PAI-1 polymers"}, {"measurement": "activity on PAI-1 bound to vitronectin", "setting": "[4]; 50 μM", "result": "inactive"}, {"measurement": "kapp, annonacinone added to PAI-1 pre-incubated with vitronectin", "setting": "[4]; 50 μM, PAI-1 pre-incubated with VN 20 min 37 °C, DMSO 1% 1.05 ± […] 10^−2", "result": "2.16 ± 0.17 × 10^−2 s^−1"}, {"measurement": "kapp, annonacinone pre-incubated with PAI-1 before addition of vitronectin", "setting": "[4]; 50 μM, pre-incubation with PAI-1 20 min 37 °C, then VN 20 min 37 °C", "result": "2.39 ± 0.32 × 10^−3 s^−1"}, {"measurement": "IC50", "setting": "[4]; annonacinone pre-incubated with PAI-1 before vitronectin", "result": "10 ± 2", "unit": "µM"}, {"measurement": "kapp Annonacinone 50 μM", "setting": "PAI-1 Y79A; DMSO 1% 4,0 ± 1,0 × 10^−3, n = 4", "result": "4,8 ± 0,9 × 10^−3 s^−1"}, {"measurement": "Annonacinone activity 50 μM (% WT)", "setting": "PAI-1 Y79A; ratio of kapp without/with annonacinone relative to WT (100%)", "result": "12 ± 2", "unit": "% WT"}, {"measurement": "kapp Annonacinone 50 μM", "setting": "PAI-1 T94A; DMSO 1% 6,6 ± 0,9 × 10^−3, n = 4", "result": "2,3 ± 0,4 × 10^−3 s^−1"}, {"measurement": "Annonacinone activity 50 μM (% WT)", "setting": "PAI-1 T94A; [6]", "result": "42 ± 6", "unit": "% WT"}, {"measurement": "Annonacinone activity 50 μM (% WT)", "setting": "PAI-1 D95A", "result": "163 ± 24", "unit": "% WT"}, {"measurement": "kapp Annonacinone 50 μM", "setting": "PAI-1 R118A; DMSO 1% 6,0 ± 0,9 × 10^−3, n = 4", "result": "3,4 ± 0,3 × 10^−4 s^−1"}, {"measurement": "Annonacinone activity 50 μM (% WT)", "setting": "PAI-1 R118A; [6]", "result": "264 ± 40", "unit": "% WT"}, {"measurement": "kapp Annonacinone 50 μM", "setting": "PAI-1 K122A; DMSO 1% 1,9 ± 0,3 × 10^−3, n = 4", "result": "3,5 ± 0,9 × 10^−4 s^−1"}, {"measurement": "Annonacinone activity 50 μM (% WT)", "setting": "PAI-1 K122A", "result": "80 ± 13", "unit": "% WT"}, {"measurement": "Annonacinone activity 50 μM (% WT)", "setting": "PAI-1 K122A; listed as annonacinone", "result": "no effect"}]}]}
